Measured values from patent US20160002247A1, “8-SUBSTITUTED IMIDAZOPYRIMIDINONE DERIVATIVE HAVING AUTOTAXIN INHIBITORY ACTIVITY” (THE UNIVERSITY OF TOKYO, priority 2013, published 2016).

Target: T1, Human autotaxin enzyme (Homo sapiens, UniProt Q13822)
T1 construct: purchased R&D System
Assay: Evaluation of autotaxin inhibitor, Method C (Test Example 3): 18:0 Lyso PC, choline assay, Resorufin fluorescence
Assay type: biochemical
Settings: Assay Method C (Test Example 3), human autotaxin, 18:0 Lyso PC substrate; read-out: Inhibitory Activity (autotaxin enzyme inhibitory activity, IC50 class)
Method in brief: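 Human autotaxin in Tris-HCl pH 7.5, 150 mM NaCl, 5 mM MgCl2, 0.05% Triton X-100 reacted 2 h at room temperature with 18:0 Lyso PC (200 μM solution added). Released choline detected via choline oxidase/peroxidase/Amplex-type reagent, resorufin fluorescence (ex 531/em 598 nm); inhibition vs no-compound and no-enzyme controls, concentration-response curve.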

SMILES	IC50 [nM]
CCCCCn1c(-c2ccc(C(=O)NCC(=O)N(C)C)cc2)cc(=O)n2cc(-c3ccc(Cl)cc3)nc12 [Compound 496]	10 to 100
CCCCCn1c(-c2ccc(C(=O)NC3(CO)CCC3)cc2)cc(=O)n2cc(-c3ccc(Cl)cc3)nc12 [Compound 497]	10 to 100
CCCCCn1c(-c2ccc(C(=O)N3CCN(S(C)(=O)=O)CC3)cc2)cc(=O)n2cc(-c3ccc(Cl)cc3)nc12 [Compound 498]	10 to 100
CCCCCn1c(-c2ccc(C(=O)NCCS(N)(=O)=O)cc2)cc(=O)n2cc(-c3ccc(Cl)cc3)nc12 [Compound 499]	10 to 100
CCCCCn1c(-c2ccc(C(=O)NCC(C)=O)cc2)cc(=O)n2cc(-c3ccc(Cl)cc3)nc12 [Compound 500]	10 to 100
CCCCCn1c(-c2ccc(C(=O)NCCS(=O)(=O)N3CCOCC3)cc2)cc(=O)n2cc(-c3ccc(Cl)cc3)nc12 [Compound 501]	10 to 100
CCCCCn1c(-c2ccc(C(=O)NC3CCOC3=O)cc2)cc(=O)n2cc(-c3ccc(Cl)cc3)nc12 (centres unmarked) [Compound 502]	10 to 100
CCCCCn1c(-c2ccc(C(=O)N3C[C@@H]4COC(=O)[C@@H]4C3)cc2)cc(=O)n2cc(-c3ccc(Cl)cc3)nc12 [Compound 503]	10 to 100
CCCCCn1c(-c2ccc(C(=O)NC[C@@H](O)CO)cc2)cc(=O)n2cc(-c3ccc(Cl)cc3)nc12 [Compound 504]	10 to 100
CCCCCn1c(-c2ccc(C(=O)NCCCn3ccnc3)cc2)cc(=O)n2cc(-c3ccc(Cl)cc3)nc12 [Compound 505]	< 10
CCCCCn1c(-c2ccc(C(=O)NCc3ccco3)cc2)cc(=O)n2cc(-c3ccc(Cl)cc3)nc12 [Compound 506]	10 to 100
CCCCCn1c(-c2ccc(C(=O)NCc3ccccn3)cc2)cc(=O)n2cc(-c3ccc(Cl)cc3)nc12 [Compound 507]	10 to 100
CCCCCn1c(-c2ccc(C(=O)NCCc3ccccn3)cc2)cc(=O)n2cc(-c3ccc(Cl)cc3)nc12 [Compound 508]	10 to 100
CCCCCn1c(-c2ccc(C(=O)NCc3ccc(N4CCOCC4)cc3)cc2)cc(=O)n2cc(-c3ccc(Cl)cc3)nc12 [Compound 509]	10 to 100
CCCCCn1c(-c2ccc(C(=O)NC3CN4CCC3CC4)cc2)cc(=O)n2cc(-c3ccc(Cl)cc3)nc12 (centres unmarked) [Compound 510]	< 10
CCCCCn1c(-c2ccc(C(=O)NCCc3cncn3C)cc2)cc(=O)n2cc(-c3ccc(Cl)cc3)nc12 [Compound 511]	10 to 100
CCCCCn1c(-c2ccc(C(=O)NCCc3ccc(S(C)(=O)=O)cc3)cc2)cc(=O)n2cc(-c3ccc(Cl)cc3)nc12 [Compound 512]	< 10
CCCCCn1c(-c2ccc(C(=O)NCCS(=O)(=O)N3CCCC3)cc2)cc(=O)n2cc(-c3ccc(Cl)cc3)nc12 [Compound 513]	10 to 100
CCCCCn1c(-c2ccc(C(=O)NCCn3ccnc3)cc2)cc(=O)n2cc(-c3ccc(Cl)cc3)nc12 [Compound 514]	< 10
CCCCCn1c(-c2ccc(C(=O)NCCN3CCSCC3)cc2)cc(=O)n2cc(-c3ccc(Cl)cc3)nc12 [Compound 515]	10 to 100
CCCCCn1c(-c2ccc(C(=O)NCCN3CCNC3=O)cc2)cc(=O)n2cc(-c3ccc(Cl)cc3)nc12 [Compound 516]	10 to 100
CCCCCn1c(-c2ccc(C(=O)NCCC(=O)N3CCOCC3)cc2)cc(=O)n2cc(-c3ccc(Cl)cc3)nc12 [Compound 517]	10 to 100
CCCCCn1c(-c2ccc(C(=O)NCc3ccc([N+](=O)[O-])cc3)cc2)cc(=O)n2cc(-c3ccc(Cl)cc3)nc12 [Compound 518]	100 to 1000

SMILES	IC50 [nM]
CCCCCn1c(-c2ccc(C(=O)NCc3ccc(S(C)(=O)=O)cc3)cc2)cc(=O)n2cc(-c3ccc(Cl)cc3)nc12 [Compound 519]	10 to 100
CCCCCn1c(-c2ccc(C(=O)NCCCn3cc(-c4cccnc4)cn3)cc2)cc(=O)n2cc(-c3ccc(Cl)cc3)nc12 [Compound 520]	10 to 100
CCCCCn1c(-c2ccc(C(=O)NCc3ccc(S(N)(=O)=O)cc3)cc2)cc(=O)n2cc(-c3ccc(Cl)cc3)nc12 [Compound 521]	10 to 100
CCCCCn1c(-c2ccc(C(=O)NCCNC)cc2)cc(=O)n2cc(-c3ccc(Cl)cc3)nc12 [Compound 522]	10 to 100
CCCCCn1c(-c2ccc(C(=O)NCCc3c[nH]cn3)cc2)cc(=O)n2cc(-c3ccc(Cl)cc3)nc12 [Compound 523]	10 to 100
CCCCCn1c(-c2ccc(C(=O)NCCNC3CCS(=O)(=O)C3)cc2)cc(=O)n2cc(-c3ccc(Cl)cc3)nc12 (centres unmarked) [Compound 524]	10 to 100
CCCCCn1c(-c2ccc(C(=O)NCc3ncc[nH]3)cc2)cc(=O)n2cc(-c3ccc(Cl)cc3)nc12 [Compound 525]	10 to 100
CCCCCn1c(-c2ccccn2)cc(=O)n2cc(-c3ccc(Cl)cc3)nc12 [Compound 528]	100 to 1000
CCCCCn1c(-c2ccc(C(=O)OC)cc2)cc(=O)n2cc(-c3ccc(Cl)cc3)nc12 [Compound 529]	100 to 1000
CCCCCn1c(-c2cnc(C#N)nc2)cc(=O)n2cc(-c3ccc(Cl)cc3)nc12 [Compound 530]	10 to 100
CCCCCn1c(-c2cnc(CNC(=O)[C@H](O)CO)nc2)cc(=O)n2cc(-c3ccc(Cl)cc3)nc12 [Compound 531]	< 10
CCCCCn1c(-c2cnc(C(=O)OC)nc2)cc(=O)n2cc(-c3ccc(Cl)cc3)nc12 [Compound 532]	10 to 100
CCCCCn1c(-c2cnc(C(=O)O)nc2)cc(=O)n2cc(-c3ccc(Cl)cc3)nc12 [Compound 533]	< 10
CCCCCn1c(-c2cnc(C(=O)NCCC(=O)OC)nc2)cc(=O)n2cc(-c3ccc(Cl)cc3)nc12 [Compound 534]	< 10
CCCCCn1c(-c2cnc(C(=O)NCCN3CC4(COC4)C3)nc2)cc(=O)n2cc(-c3ccc(Cl)cc3)nc12 [Compound 535]	< 10
CCCCCn1c(-c2cnc(C(=O)NCCC(=O)O)nc2)cc(=O)n2cc(-c3ccc(Cl)cc3)nc12 [Compound 536]	< 10
CCCCCn1c(OC2CNC2)cc(=O)n2cc(-c3ccc(Cl)cc3)nc12 [Compound 537]	10 to 100
CCCCCn1c(OC2CCNCC2)cc(=O)n2cc(-c3ccc(Cl)cc3)nc12 [Compound 538]	100 to 1000
CCCCCn1c(OC2CCN(C(=O)CN3CCOCC3)CC2)cc(=O)n2cc(-c3ccc(Cl)cc3)nc12 [Compound 539]	10 to 100
CCCCCn1c(OC2CCN(CC(=O)O)CC2)cc(=O)n2cc(-c3ccc(Cl)cc3)nc12 [Compound 540]	10 to 100
CCCCCn1c(C2=CCN(C(=O)OC(C)(C)C)CC2)cc(=O)n2cc(-c3ccc(Cl)cc3)nc12 [Compound 541]	100 to 1000
CCCCCn1c(OC2CCN(CCN3CCOCC3)CC2)cc(=O)n2cc(-c3ccc(Cl)cc3)nc12 [Compound 542]	100 to 1000
CCCCCn1c(OC2CN(C(=O)CN3CCOCC3)C2)cc(=O)n2cc(-c3ccc(Cl)cc3)nc12 [Compound 543]	10 to 100

SMILES	IC50 [nM]
CCCCCn1c(O[C@@H]2CO[C@H]3[C@@H]2OC[C@H]3O)cc(=O)n2cc(-c3ccc(Cl)cc3)nc12 [Compound 544]	100 to 1000
CCCCCn1c(C2=CCN(C(C)=O)CC2)cc(=O)n2cc(-c3ccc(Cl)cc3)nc12 [Compound 546]	10 to 100
CCCCCn1c(C2=CCN(S(C)(=O)=O)CC2)cc(=O)n2cc(-c3ccc(Cl)cc3)nc12 [Compound 547]	10 to 100
CCCCCn1c(OC2CCN(CC(=O)N3CCOCC3)CC2)cc(=O)n2cc(-c3ccc(Cl)cc3)nc12 [Compound 548]	100 to 1000
CCCCCn1c(O[C@H]2CCN(C(=O)OC(C)(C)C)C2)cc(=O)n2cc(-c3ccc(Cl)cc3)nc12 [Compound 549]	10 to 100
CCCCCn1c(O[C@@H]2CCN(C(=O)OC(C)(C)C)C2)cc(=O)n2cc(-c3ccc(Cl)cc3)nc12 [Compound 550]	100 to 1000
CCCCCn1c(O[C@H]2C[C@@H](NC(=O)OC(C)(C)C)C2)cc(=O)n2cc(-c3ccc(Cl)cc3)nc12 [Compound 551]	100 to 1000
CCCCCn1c(O[C@H]2C[C@H](NC(=O)OC(C)(C)C)C2)cc(=O)n2cc(-c3ccc(Cl)cc3)nc12 [Compound 552]	100 to 1000
CCCCCn1c(OCC2CCN(C(=O)OC(C)(C)C)C2)cc(=O)n2cc(-c3ccc(Cl)cc3)nc12 (centres unmarked) [Compound 553]	100 to 1000
CCCCCn1c(OCC2CCCN2C(=O)OC(C)(C)C)cc(=O)n2cc(-c3ccc(Cl)cc3)nc12 (centres unmarked) [Compound 554]	100 to 1000
CCCCCn1c(OC[C@H]2CCCN2C(=O)OC(C)(C)C)cc(=O)n2cc(-c3ccc(Cl)cc3)nc12 [Compound 555]	10 to 100
CCCCCn1c(O[C@H]2CC[C@H](C(C)(C)C(=O)O)CC2)cc(=O)n2cc(-c3ccc(Cl)cc3)nc12 [Compound 556]	10 to 100
CCCCCn1c(C2=CCC(C(=O)O)CC2)cc(=O)n2cc(-c3ccc(Cl)cc3)nc12 (centres unmarked) [Compound 557]	10 to 100
CCCCCn1c(OC)cc(=O)n2cc(-c3ccc(Cl)cc3)nc12 [Compound 558]	100 to 1000
CCCCCn1c(N(CCC)C(C)=O)cc(=O)n2cc(-c3ccc(Cl)cc3)nc12 [Compound 560]	10 to 100
CCCCCn1c(/N=C(\C)OCCC)cc(=O)n2cc(-c3ccc(Cl)cc3)nc12 [Compound 561]	> 1000
CCCCCn1c(N(CCOCCOC)C(C)=O)cc(=O)n2cc(-c3ccc(Cl)cc3)nc12 [Compound 562]	100 to 1000
CCCCCn1c(/N=C(\C)OCCCOCOC)cc(=O)n2cc(-c3ccc(Cl)cc3)nc12 [Compound 563]	100 to 1000
CCCCCn1c(N(CCCC(=O)OCC)C(C)=O)cc(=O)n2cc(-c3ccc(Cl)cc3)nc12 [Compound 564]	10 to 100
CCCCCn1c(N(Cc2ccc(C(=O)OC)cc2)C(C)=O)cc(=O)n2cc(-c3ccc(Cl)cc3)nc12 [Compound 566]	10 to 100
CCCCCn1c(/N=C(\C)OCc2ccc(C(=O)OC)cc2)cc(=O)n2cc(-c3ccc(Cl)cc3)nc12 [Compound 567]	> 1000
CCCCCn1c(N(Cc2ccc(C(=O)O)cc2)C(C)=O)cc(=O)n2cc(-c3ccc(Cl)cc3)nc12 [Compound 569]	< 10
